Source: patent US7645740B2, “Peptide sequence found in Laminin 5 for treating skin impairments” (Laboratoires d'Anjou Centre National de la Recherche …, priority 2004, dated 2010)

Tests used:
[1] = test system: NHK-young (keratinocytes from young individuals); test: Cell adhesion of NHK-young to immobilized peptide; assay type: cell-based, human
Experimental: Dose-dependent cell adhesion of NHK-10 years versus NHK-71 years (A) and NHK-11 years versus NHK-60 years (B) peptides TALRIRATYHEY. The peptides were immobilized in 96-well plates at the concentrations given on the abscissa. 3.5×10^4 (A) cells and 4.3×10^4 (B) cells were deposited in each well and plates were incubated at 37° C. for 1 hour. After washing, attached cells were fixed and cell adhesion was measured as described in the methodology section (C). Cells were observed by phase contrast microscopy then photographed. Bar=50 μm.
In order to obtain keratinocytes originating from biopsies taken from young and old individuals and taken from the same anatomical site, the inventors conducted a study of facial skin biopsies. The area of the face situated behind the ears was chosen in order to study only intrinsic aging and to overcome the effects of photo-induced aging. Surgery waste from cosmetic surgery (face lifts) in older individuals and surgery waste from detached ears in young children was collected. It is essential to use biopsies collected on the same day as surgery was performed in order to quickly place the epidermal keratinocytes in culture. Cells from biopsies on elderly individuals (60, 63 and 71 years) and young individuals (8, 10 and 11 years) were used for this study. The keratinocytes were obtained by means of the technique described by Boyce and Ham, 1985. After careful washing in PBS buffer containing antibiotics, fatty tissue located under the dermis was removed from the skin fragments using sterile instruments. Skin was then cut into 3 mm^2 sections which were placed in a sterile solution of 0.25% trypsin in PBS for 16 hours at 4° C. Dermis/epidermis separation was performed using tweezers in a Petri dish containing culture medium in order to stop the enzyme action of trypsin. Epidermal fragments were then aspirated and blown out several times using a pipette in order to detach free basal cells. […]

[2] = test system: A431 cells (skin epitheloids); test: Cell adhesion test to immobilized peptides, A431; assay type: cell-based
Experimental: Dose-dependent cell adhesion of cell line A431 to various peptides 1, 2 and 3. The peptides were immobilized in 96-well plates at the concentrations given on the abscissa. 8×10^4 cells were deposited in each well and plates were incubated at 37° C. for 1 hour. After washing, attached cells were fixed and cell adhesion was measured as described in the methodology section.
Peptides 1, 2 and 3 were used for the cell adhesion experiments. A range of 7 decreasing concentrations (100 micrograms/ml, 50 micrograms/ml, 25 micrograms/ml, 12.5 micrograms/ml, 6.25 micrograms/ml, 3.125 micrograms/ml and 1.562 micrograms/ml) was made up by successive dilution in PBS (Phosphate Buffer Saline, KH2PO4 1.54 mM; Na2HPO4 1.42 mM; NaCl-131 mM) using a starting solution at a concentration of 1 mg/ml. These solutions were immediately distributed onto a 96-well culture plate (Greinher, Dutscher, Brumath, France) at a rate of 100 μl per well. Plates were then placed at +4° C. for 16 to 18 hours. The solutions were then removed by turning the plates and each well was saturated with a 1% PBS-BSA solution (bovine serum albumin). Three additional wells without the substrate underwent the same treatment and were used as blanks.
Epithelial cells were detached from the culture dishes using a trypsin/EDAT solution (0.05-0.02%) then suspended in DMEM medium without additives for the cell lines and in KBM-2 without additive for human keratinocytes. The number of seeded cells per well is given in the graphs (50,000 to 100,000 cells per well).
After cell seeding, the multi-well plates were placed in an incubator at 37° C. under 5% CO2. After incubation for 30 to 60 minutes, cells were observed under a phase contrast microscope in order to verify that the test was conducted correctly. The adhesion medium was then removed and each well was washed in a sterile PBS solution to remove non-adhering cells. The remaining cells, attached to the substrate, were then fixed using a solution of 1% glutaraldehyde in PBS for 15 minutes. The glutaraldehyde solution as removed and the cells were stained with a crystal violet solution diluted to 1% in distilled water for 30 minutes.
After rinsing in water several times, cells were permeabilized by means of a 0.02% triton solution for 15 minutes in order to solubilize the crystal violet. Absorbances were read at 570 nm using an ELISA plate reader (MR500, Dynatech, Guernsey, Channel Islands). Each experimental point was carried out in triplicate. The blank value represented the mean absorbance of 3 control wells (BSA). This was subtracted from each of the optical density values for the experimental points. We then calculated the mean for the three absorbance values for each of the triplicate samples.
The results are presented in the form of a graph with the absorbance values on the ordinate and the various substrate concentrations on the abscissa. Attached cells were photographed by phase contrast microscopy.
The following cells from epithelial cell lines were used initially (commonly used in preliminary studies on cell adhesion): • line HT1080 cells (human fibrosarcoma), American Type Culture Collection CCL-121. • line HB100 cells (human mammary epithelium), American Type Culture Collection HTB-124. • line A431 cells (skin epitheliods), American Type Culture Collection CRL-1555.

Question: With “TALRIRATYGEY (Human laminin 5) [Peptide 1]” as the sequence, how does the “deposited peptide quantity triggering adhesion” value ([1]; NHK-young) read?
Answer: 0.08 µg

Question: And the “cell adhesion to immobilized peptide” value ([1]; NHK-young, 0 to 5 micrograms per well, 1 hour 37° C.)?
Answer: triggered dose-dependent cell adhesion

Question: What about the “number of NHK-young cells attached compared to NHK-old (fold)” value ([1]; both experiments (10 vs 71 years, 11 vs 60 years), identical cell numbers) of the same sequence?
Answer: ~2

Question: And the “immobilized peptide quantity at which adhesion occurred” value ([2]; A431)?
Answer: 0.62 micrograms

Question: And the “immobilized peptide quantity at which maximum adhesion was achieved” value ([2]; A431)?
Answer: 1.2 micrograms

Question: And the “cell adhesion to immobilized peptide” value ([2]; A431, 0 to 10 micrograms immobilized peptide, 8×10^4 cells per well, 1 hour 37° C., absorbance 570 nm)?
Answer: led to cell adhesion
